In the assay the target is MAPK14 (human) (UniProt Q16539). Description: Assessment of MAPK14 Kinase Activity.
Chain of MAPK14 (human) (Q16539 whole entry, looked up): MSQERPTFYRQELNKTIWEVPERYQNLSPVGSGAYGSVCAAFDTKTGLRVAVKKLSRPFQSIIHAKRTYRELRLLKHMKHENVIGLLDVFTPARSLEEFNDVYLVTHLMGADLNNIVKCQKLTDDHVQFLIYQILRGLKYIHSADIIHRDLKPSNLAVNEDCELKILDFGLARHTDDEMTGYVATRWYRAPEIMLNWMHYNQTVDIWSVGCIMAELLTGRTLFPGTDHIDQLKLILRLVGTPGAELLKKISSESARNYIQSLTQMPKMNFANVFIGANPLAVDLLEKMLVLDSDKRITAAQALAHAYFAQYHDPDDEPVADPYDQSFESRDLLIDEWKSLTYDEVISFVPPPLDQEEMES

As a reminder, the IC50 is the concentration needed to halve the response being measured. A high value points to a need for much substance. Turning to `COCCOc1ccc(-c2cc(NC(=O)Nc3sc(C(C)(C)C)cc3C(=O)N3CCN(C)C(=O)C3(C)C)ccc2C)cn1`, the IC50 is under 100 nM.

Compound `Cc1ccc(NC(=O)Nc2sc(C(C)(C)C)cc2C(=O)N2CCNC(=O)C2(C)C)cc1C#N` gave an IC50 of under 100 nM.

Take `COC(=O)CN1CCN(C(=O)c2cc(C(C)(C)C)sc2NC(=O)Nc2ccc(C)c(-c3ccncc3)c2)C(C)(C)C1=O`: the IC50 was under 100 nM.

Compound `COc1ccc(-c2cc(NC(=O)Nc3cc(C(C)(C)C)sc3C(=O)N3CCNC(=O)C3(C)C)ccc2C)cn1` yielded an IC50 of under 100 nM.

Compound `CCNC(=O)c1ccc(-c2cc(NC(=O)Nc3cn(C(C)(C)C)nc3C(=O)N3CCNC(=O)C3(C)C)ccc2C)cn1` had an IC50 of under 100 nM.

In the case of `Cc1ccc(NC(=O)Nc2sc3c(c2C(=O)N2CCN(C)C(=O)C2(C)C)CCOC3)cc1-c1ccc(CN2CCOCC2)nc1`, the IC50 is 100 to 1000 nM.

`Cc1c(NC(=O)Nc2sc(C(C)(C)C)cc2C(=O)N2CCNC(=O)C2(C)C)cccc1-c1ccc(N2CCOCC2)nc1` came in with an IC50 of under 100 nM.

In turn, `Cc1ccc(NC(=O)Nc2cc(C(C)(C)C)sc2C(=O)N2CCNC(=O)C2(C)C)cc1-c1ccc(N2CCOCC2)nc1` gave an IC50 of under 100 nM.

As to `CC(C)(C)c1cc(C(=O)N2CCNC(=O)C2(C)C)c(NC(=O)Nc2cccc(-c3ccncc3)c2)s1`, the IC50 was under 100 nM.

`Cc1ccc(NC(=O)Nc2sc(C(C)(C)C)cc2C(=O)N2CCN(C)C(=O)C2(C)C)cc1-c1ccc(C(C)N2CCOCC2)nc1` (centres undefined) displayed an IC50 of under 100 nM.

Consider `CCNC(=O)c1ccc(-c2cc(NC(=O)Nc3sc(C(C)(C)C)cc3C(=O)N3CCN(C)C(=O)C3(C)C)ccc2C)cn1`, for which the IC50 is under 100 nM.

In the case of `Cc1ccc(NC(=O)Nc2sc(C(C)(C)C)cc2C(=O)N2CCN(C)C(=O)C2(C)C)cc1-c1ccc(C(C)(C)O)nc1`, the IC50 is under 100 nM.

With `COc1ccc(-c2cc(NC(=O)Nc3sc(C(C)(C)C)cc3C(=O)N3CCN(C)C(=O)C3(C)C)ccc2C)cn1`, the IC50 was under 100 nM.

`Cc1ccc(NC(=O)Nc2sc(C(C)(C)C)cc2C(=O)N2CCNS(=O)(=O)CC2)cc1-c1ccc(CN2CCOCC2)nc1` displayed an IC50 of under 100 nM.

Compound `Cc1ccc(NC(=O)Nc2oc(C(C)(C)C)cc2C(=O)N2CCNC(=O)C2(C)C)cc1-c1ccncc1` registered an IC50 of under 100 nM.

Compound `C#Cc1cc(NC(=O)Nc2sc(C(C)(C)C)cc2C(=O)N2CCNC(=O)C2(C)C)ccc1C` showed an IC50 of under 100 nM.

Compound `Cc1ccc(NC(=O)Nc2sc(C(C)(C)C)cc2C(=O)N2CCNC(=O)C2(C)C)cc1-c1ccc(OCCN(C)C)nc1` showed an IC50 of under 100 nM.

Compound `CCOc1ccc(-c2cc(NC(=O)Nc3sc(C(C)(C)C)cc3C(=O)N3CCN(C)C(=O)C3(C)C)ccc2C)cn1` came in with an IC50 of under 100 nM.

`CC(C)(C)c1cc(C(=O)N2CCNC(=O)C2(C)C)c(NC(=O)Nc2cccc(-c3cccnc3)c2)s1` showed an IC50 of under 100 nM.

In turn, `Cc1nnc(CN2CCN(C(=O)c3cc(C(C)(C)C)sc3NC(=O)Nc3ccc(C)c(-c4ccncc4)c3)C(C)(C)C2=O)o1` displayed an IC50 of under 100 nM.

The compound `CCc1ccc(-c2cc(NC(=O)Nc3sc(C(C)(C)C)cc3C(=O)N3CCNC(=O)C3(C)C)cc(F)c2C)cn1` yielded an IC50 of under 100 nM.

The compound `Cc1ccc(NC(=O)Nc2sc(C(C)(C)C)cc2C(=O)N2CCNC(=O)C2(C)C)cc1-c1ccc(OCCCN(C)C)nc1` showed an IC50 of under 100 nM.

`CC(C)(C)c1cc(C(=O)N2CCNC(=O)C2(C)C)c(NC(=O)Nc2cccc(-c3ccc(OCCCN4CCOCC4)nc3)c2)s1` returned an IC50 of under 100 nM.

Turning to `CCc1ccc(-c2cc(NC(=O)Nc3cn(C(C)(C)C)nc3C(=O)N3CCN(C)C(=O)C3(C)C)cc(F)c2C)cn1`, the IC50 was under 100 nM.

Take `Cc1ccc(NC(=O)Nc2sc(C(C)(C)C)cc2C(=O)N2CCNC(=O)C2(C)C)cc1-c1ccc(OCCCN2CCN(C)CC2)nc1`: the 50% inhibitory concentration (IC50) was under 100 nM.

Consider `Cc1ccc(NC(=O)Nc2sc(C(C)(C)C)cc2C(=O)N2CCNC(=O)C2(C)C)cc1C#CCOC1CCOCC1`, for which the IC50 is under 100 nM.

In the case of `Cc1ccc(NC(=O)Nc2sc(C(C)(C)C)cc2C(=O)N2CCNC(=O)C2(C)C)cc1-c1ccc(N2CCC(N)C2)nc1` (centres undefined), the IC50 is under 100 nM.

The compound `Cc1ccc(NC(=O)Nc2sc(C(C)(C)C)nc2C(=O)N2CCN(C)C(=O)C2(C)C)cc1-c1ccc(CN2CCOCC2)cn1` had an IC50 of under 100 nM.

Regarding `Cc1ccc(NC(=O)Nc2sc(C(C)(C)C)cc2C(=O)N2CCNC(=O)C2(C)C)cc1-c1cccc[n+]1[O-]`, the IC50 is under 100 nM.

Compound `COc1ccc(-c2cc(NC(=O)Nc3cc(C(C)(C)C)sc3C(=O)N3CCN(C)C(=O)C3(C)C)cc(F)c2C)cn1` had an IC50 of under 100 nM.

As for `CCc1ccc(-c2cc(NC(=O)Nc3sc(C(C)(C)C)cc3C(=O)N3CCN(C)C(=O)C3(C)C)cc(F)c2C)cn1`, the IC50 is under 100 nM.

`Cc1ccc(NC(=O)Nc2sc(C(C)(C)C)cc2C(=O)N2CCN(C)C(=O)C2(C)C)cc1-c1ccc(CN2CCCC2)nc1` came in with an IC50 of under 100 nM.

Regarding `Cc1ccc(NC(=O)Nc2sc(C(C)(C)C)cc2C(=O)N2CCN(C)C(=O)C2(C)C)cc1-c1ccc(C(N)=O)nc1`, the half-maximal inhibitory concentration (IC50) is under 100 nM.

`Cc1ccc(NC(=O)Nc2cc(C(C)(C)C)oc2C(=O)N2CCN(C)C(=O)C2(C)C)cc1-c1ccc(CN2CCOCC2)cn1`: the IC50 is under 100 nM.

For `Cc1ccc(NC(=O)Nc2sc(C(C)(C)C)cc2C(=O)N2CCNC(=O)C2(C)C)cc1-c1ccc(N2CCN(C)CC2)nc1`, the IC50 was under 100 nM.

In the case of `Cc1ccc(NC(=O)Nc2sc(C(C)(C)C)cc2C(=O)N2CCNC(=O)C2(C)C)cc1-c1ccc(CN)nc1`, the IC50 is under 100 nM.

Compound `CCc1ccc(-c2cc(NC(=O)Nc3cn(C(C)(C)C)nc3C(=O)N3CCN(C)C(=O)C3(C)C)ccc2C)cn1` had an IC50 of under 100 nM.

As to `C#Cc1ccc(-c2cc(NC(=O)Nc3sc(C(C)(C)C)cc3C(=O)N3CCNC(=O)C3(C)C)ccc2C)cn1`, the IC50 was under 100 nM.

`Cc1ccc(NC(=O)Nc2cc(C(C)(C)C)sc2C(=O)N2CCNC(=O)C2(C)C)cc1-c1ccc(N2CCOCC2)cn1` yielded an IC50 of under 100 nM.

The compound `Cc1ccc(NC(=O)Nc2sc(C(C)(C)C)cc2C(=O)N2CCNC(=O)C2(C)C)cc1C#Cc1ccccn1` yielded an IC50 of under 100 nM.

As for `CN1CCN(CCCOc2ccc(-c3cccc(NC(=O)Nc4sc(C(C)(C)C)cc4C(=O)N4CCNC(=O)C4(C)C)c3)cn2)CC1`, the IC50 is under 100 nM.

On to `Cc1ccc(NC(=O)Nc2sc(C(C)(C)C)nc2C(=O)N2CCN(C)C(=O)C2(C)C)cc1-c1ccc(CN2CCOCC2)nc1`, for which the IC50 was under 100 nM.

Compound `Cc1ccc(NC(=O)Nc2sc(C(C)(C)C)cc2C(=O)N2CCNC(=O)C2(C)C)cc1-c1ccc(N(C)C)nc1` returned an IC50 of under 100 nM.

Regarding `CCN(CC)Cc1ccc(-c2cc(NC(=O)Nc3sc(C(C)(C)C)cc3C(=O)N3CCN(C)C(=O)C3(C)C)ccc2C)cn1`, the IC50 is under 100 nM.

The compound `CC(C)(C)c1cc(C(=O)N2CCNC(=O)C2(C)C)c(NC(=O)Nc2cccc(-c3ccc(OCCCc4ccccn4)nc3)c2)s1` returned an IC50 of under 100 nM.

Take `Cc1ccc(NC(=O)Nc2sc(C(C)(C)C)cc2C(=O)N2CCNC(=O)C2(C)C)cc1-c1ccc(OCCN2CCOCC2)nc1`: the half-maximal inhibitory concentration (IC50) is under 100 nM.

Consider `Cc1ccc(NC(=O)Nc2sc(C(C)(C)C)cc2C(=O)N2CCNC(=O)C2(C)C)cc1-c1ccc(CN2CCOCC2)cn1`, for which the IC50 was under 100 nM.

Turning to `Cc1ccc(NC(=O)Nc2cn(C(C)(C)C)nc2C(=O)N2CCN(C)C(=O)C2(C)C)cc1-c1ccc(C(C)C)nc1`, the IC50 was under 100 nM.

`Cc1ccc(NC(=O)Nc2cn(C(C)(C)C)nc2C(=O)N2CCNC(=O)C2(C)C)cc1-c1ccc(N2CCOCC2)nc1` yielded an IC50 of under 100 nM.

Source of the values: the Kinase Knowledgebase extract (Sharma et al. 2016).
